Experimental data published in a melting point compilation (Tetko et al.).

melting point	SMILES
39 to 41 °C	CCC(CC)C(O)CN (configuration not stated)
204 to 206 °C	CC(Cl)C(=O)Nc1sc2c(c1C#N)CCC2 (configuration not stated)
131 to 133 °C	CC(C)(C)C1CCc2nc(N)sc2C1 (configuration not stated)
63 to 65 °C	CCCNC(=O)c1cccnc1Cl
139 to 141 °C	NS(=O)(=O)Cc1ccc(F)cc1F
119 to 121 °C	CCCn1ccnc1S
171 to 173 °C	CN(C)c1ccc(-c2nc3ccccc3s2)cc1
224 to 226 °C	Nc1ccc(Sc2nc3ccccc3[nH]2)cc1
89 to 91 °C	Nc1cc(-c2cccc(C(F)(F)F)c2)no1
78 to 80 °C	NC1CCN(C(=O)C2CCCCC2)CC1
85 to 89 °C	Nc1ccccc1C(=O)N1CCCC1
93 to 95 °C	O=C(O)CCOc1ccc(Cl)cc1Cl
41 to 43 °C	Nn1ccccc1=O
111 to 113 °C	CC(O)c1nc2ccccc2n1C (configuration not stated)
137 to 139 °C	Nc1cc(C(=O)N2CCCC2)ccc1Cl
53 to 55 °C	OCc1nc(Cc2ccc(F)cc2)no1
59 to 61 °C	O=C(CCl)N1CCC(c2nc3ccccc3s2)CC1
208 to 210 °C	O=C(O)CNC(=O)CNC(=O)c1ccco1
78 to 80 °C	O=C(O)Cc1ccc2c(c1)CCCC2
181 to 183 °C	Cc1cc(C)c(S(=O)(=O)N2CCC(C(=O)O)CC2)c(C)c1
41 to 43 °C	CCOc1cccc(C=O)c1OC(F)F
196 to 198 °C	CCOC(=O)Nc1cccc(C(=O)O)c1
73 to 75 °C	CC(C)C(C#N)NC(=O)OC(C)(C)C (configuration not stated)
117 to 121 °C	COC(=O)c1cc(Cl)c(O)c(Cl)c1

melting point	SMILES
71 to 73 °C	O=C1CCc2c(F)cccc21
127 to 129 °C	CC(C)(C)c1ccc(-c2csc(N)n2)cc1
98 to 100 °C	CC(Cl)C(=O)Nc1cccc(Cl)c1 (configuration not stated)
201 to 203 °C	Brc1cnc2nccn2c1
96 to 98 °C	CC1(c2ccc(S(C)(=O)=O)cc2)CO1 (configuration not stated)
227 to 229 °C	Cc1cc(C)c2cc(C(=O)O)[nH]c2c1C
52 to 54 °C	CNC1CCN(c2cc(OC)cc(OC)c2)C1 (configuration not stated)
203 to 205 °C	Cc1cc(C(=O)O)ccc1NS(=O)(=O)C(F)(F)F
148 to 150 °C	CCNC(=O)c1ccc(I)cc1
95 to 100 °C	N#Cc1ccc(Cl)cc1[N+](=O)[O-]
105 to 107 °C	CCCN1C(=O)NC(=O)C1=O
99 to 101 °C	Nc1ccc(CN2CCOC2=O)cc1
105 to 106 °C	CC(C)(C)c1ccc(-c2nnc(S)n2N)cc1
216 to 218 °C	O=C1OC(=O)c2cc([N+](=O)[O-])cc3cc([N+](=O)[O-])cc1c23
130 to 132 °C	COc1cc(NC(C)=O)ccc1C(C)=O
83 to 87 °C	COc1cc(/C=C/C(=O)O)ccc1OC(C)C
74 to 76 °C	O=C(c1ccc(Cl)c([N+](=O)[O-])c1)N1CCCCC1
202 to 204 °C	CC(=O)Nc1c(C)n[nH]c1C
109 to 111 °C	Cc1ccc(NC(=O)OC(C)(C)C)cc1O
95 to 97 °C	N#Cc1cc(F)cc(F)c1[N+](=O)[O-]
128 to 132 °C	Cc1cc(C)c2nc(Cl)cc(C)c2c1
44 to 46 °C	CCc1ccc(N)cc1[N+](=O)[O-]
198 to 200 °C	NC(=O)NC(CC(=O)O)c1ccc(Cl)cc1 (configuration not stated)
114 to 116 °C	COC(=O)c1ccc(-c2noc(CC(C)(C)C)n2)cc1

melting point	SMILES
74 to 76 °C	CC(NO)c1ccc(F)cc1 (configuration not stated)
128 to 130 °C	O=C1CCCCC1n1ccc([N+](=O)[O-])n1 (configuration not stated)
86 to 88 °C	CC(Br)C(=O)c1ccc(Oc2ccccc2)cc1 (configuration not stated)
128 to 130 °C	O=C(O)CC(Br)C(=O)c1ccccc1 (configuration not stated)
78 to 80 °C	CCCCc1ccc(CC(=O)O)cc1
97 to 99 °C	COc1ccc(-c2nc(C=O)cs2)cc1
269 to 271 °C	Oc1nnc2c(Cl)cccn12
99 to 101 °C	O=C(NCc1ccccc1)c1ccnc(Cl)c1
149 to 151 °C	COc1ccccc1Nc1ccc([N+](=O)[O-])cc1N
142 to 146 °C	CCOCc1cc(C(=O)O)ccc1OC
114 to 117 °C	O=C(O)C(O)CCc1ccccc1 (configuration not stated)
60 to 62 °C	O=C(CCl)NCCC1=CCCCC1
153 to 155 °C	O=Cc1cn(-c2ccccc2)nc1-c1ccncc1
210 to 212 °C	NCCCc1nc2ccccc2[nH]1
116 to 118 °C	CC(=O)c1c(Cl)nc2ccccn12
94 to 96 °C	CC1CN(c2ccccc2C=O)CC(C)O1 (configuration not stated)
52 to 54 °C	CCOc1cc(C=O)cc(Br)c1OC
255 to 257 °C	O=C(O)c1c[nH]c2ccc([N+](=O)[O-])cc12
224 to 226 °C	Nc1nnc(Cc2cccc3ccccc23)o1
143 to 145 °C	O=C(O)c1cccc(OCc2ccc(F)cc2)c1
148 to 150 °C	c1cnnc(NCC2CNCCO2)c1 (configuration not stated)
92 to 94 °C	O=C(O)C1(c2cccc(C(F)(F)F)c2)CCC1
116 to 118 °C	CC(C)n1cnnc1S
69 to 71 °C	O=C(CCc1ccccc1)c1ccccc1

melting point	SMILES
269 to 271 °C	COc1ccc2[nH]c3c(c2c1)C(=O)CCC3
111 to 113 °C	N#Cc1cccc(-c2cscn2)c1
135 to 137 °C	CC(C)(C)OC(=O)NC(CC(=O)O)c1ccccc1 (configuration not stated)
109 to 111 °C	Cc1cc(-c2nnn[nH]2)ccc1F
191 to 193 °C	CC(=O)c1cccc(S(=O)(=O)NC(CC(N)=O)C(=O)O)c1 (configuration not stated)
244 to 246 °C	O=C(O)c1cc(-c2ccc(Cl)cc2)nc2ccccc12
168 to 170 °C	NNC(=O)c1csc(N2CCOCC2)n1
177 to 179 °C	Nc1cc(S(=O)(=O)N2CCOCC2)ccc1Cl
219 to 221 °C	O=C1Cc2cc(Br)c(Cl)cc2N1
181 to 183 °C	CCc1nc(N)sc1C(=O)OC
204 to 206 °C	COc1ccc(NCCCC(=O)O)cc1
45 to 50 °C	CCc1cc(O)ccc1Cl
149 to 151 °C	Cc1ccc(Cl)c(NC(=O)C(C)Cl)c1Cl (configuration not stated)
207 to 209 °C	NNc1c(Cl)cc(C(=O)O)cc1Cl
189 to 191 °C	Cc1cc(C(=O)O)c2c(C)nn(C(C)(C)C)c2n1
161 to 163 °C	Sc1nc(-c2ccccc2)ns1
124 to 126 °C	Cc1cc(C(C)(C)C)cc(C)c1S(=O)(=O)N1CCNCC1
227 to 229 °C	O=C(O)c1ccc(NC(=O)c2cccs2)cc1
175 to 177 °C	CS(=O)(=O)c1ccc(NC(=O)OCC(F)(F)F)cc1
109 to 111 °C	COc1ccc(C2CC2C(=O)O)cc1 (configuration not stated)
98 to 100 °C	CC(=O)N(C)CCCC(=O)O
108 to 110 °C	COCC(=O)NC(C)C(=O)O (configuration not stated)
176 to 178 °C	O=C(Cc1nc2ccccc2[nH]1)NCc1ccccn1
70 to 72 °C	COc1cc2nc(C)sc2cc1OC

melting point	SMILES
71 to 73 °C	NCCCN1CCCC(C(N)=O)C1 (configuration not stated)
79 to 81 °C	O=C1CCc2ccc(Cl)cc21
188 to 190 °C	O=C(O)C(=O)c1ccc(Br)cc1O
171 to 173 °C	O=C1C(Br)=CC2C1C1C=CC2(Br)C12OCCO2 (configuration not stated)
124 to 126 °C	O=C(O)COc1cccc(Oc2ccccn2)c1
77 to 79 °C	CCOC(=O)c1c(N)sc(C)c1CC(C)CC (configuration not stated)
101 to 103 °C	CC(C)c1noc(N)n1
118 to 120 °C	CC(C)(C)C(=O)N1CSCC1C(=O)O (configuration not stated)
123 to 125 °C	NC(=S)NCC1CCC1
225 to 227 °C	CN1C(=O)CC(C(=O)O)C1c1ccc(Cl)c(F)c1 (configuration not stated)
87 to 89 °C	CC(N)c1ccc(-c2ccncc2)cc1 (configuration not stated)
157 to 159 °C	Cc1cc(C(=O)O)nn1-c1ccccn1
152 to 154 °C	CNC(=O)c1ccc(C=O)cc1
91 to 93 °C	O=C(O)CCN1CCSC1=O
119 to 121 °C	CCCCn1nc(C(=O)O)ccc1=O
144 to 146 °C	CC(CC(=O)O)NS(=O)(=O)c1cccnc1Cl (configuration not stated)
286 to 288 °C	N#Cc1cnn(-c2cccc(C(=O)O)c2)c1N
140 to 142 °C	CN(C)c1ccc([N+](=O)[O-])c(O)c1
70 to 72 °C	Cc1ccc(S(=O)(=O)Cl)c(Br)c1
163 to 165 °C	Cc1c(C(N)=O)cccc1[N+](=O)[O-]
254 to 256 °C	COc1ccc2ccc(-c3nn(-c4ccccc4)cc3C(=O)O)cc2c1
84 to 86 °C	Nc1ncccc1OCc1cccc(Cl)c1
202 to 204 °C	CN(C)Cc1nnc(S)o1
83 to 85 °C	O=C(O)CC1CCC(c2ccccc2)CC1 (configuration not stated)

melting point	SMILES
165 to 167 °C	O=C(O)C1(c2ccc3c(c2)OCCO3)CCCC1
115 to 117 °C	CCNc1ccc(S(=O)(=O)C(F)F)cc1N
225 to 229 °C	Cc1ccn2cc(C(=O)O)nc2c1
141 to 143 °C	CCc1ccc(C(=O)O)cc1C#N
145 to 147 °C	COCCOc1nc(C(=O)O)cc2ccccc12
129 to 131 °C	c1cn(-c2cncnc2)cn1
171 to 173 °C	NC(=O)NCCCC(=O)O
119 to 121 °C	Cc1cn(-c2ccccc2)nc1N
127 to 129 °C	COc1ccc2c(c1)NC(=O)CCC2
87 to 89 °C	COc1ccccc1-c1nnc(S)n1CCc1ccccc1
126 to 128 °C	CCOc1ccc(-c2cc(N)on2)cc1
57 to 59 °C	O=S(=O)(Cl)c1sc(Cl)nc1Cl
229 to 231 °C	Nc1nc2cc(Cl)ccc2n1CCCn1ccnc1
273 to 275 °C	NC1(c2nc(C(=O)O)c[nH]2)CCC1
131 to 133 °C	Sc1nnc(C2CC2)o1
196 to 198 °C	Ic1nnc[nH]1
143 to 145 °C	Clc1nc(-c2cccs2)nc2scc(-c3ccccc3)c12
169 to 171 °C	CCC(=O)Nc1ccc(O)cc1
65 to 67 °C	C#CCNc1nccs1
113 to 117 °C	O=C(O)CC(Br)C(=O)c1ccc(Cl)cc1 (configuration not stated)
154 to 156 °C	CC(=O)Oc1ccc(C)cc1C(=O)O

SMILES	melting point
Cc1cc(O)nc(CCl)n1	147 to 149 °C
c1cnc2[nH]cc(C3CCNCC3)c2c1	159 to 161 °C
Cc1cc(O)nc(C(C)Cl)n1 (configuration not stated)	132 to 134 °C
Cc1cccc(N2CCN(CCN)CC2)c1C	60 to 62 °C
CN(C(=O)CCl)C(C)(C)C#N	55 to 57 °C
COc1ccc(CC(N)c2ccc(OC)cc2)cc1 (configuration not stated)	175 to 177 °C
